Results on one compound are retold here after patent US20240123079A1 (Seagen Inc., priority 2021, published 2024).

Molecules are shown by their SMILES.

In one data set the test system is SU-DHL-4. Nature of the data set: Cancer cell direct cytotoxicity assay (CellTiter-Glo), SU-DHL-4. Type of data set: cell-based. The settings on record: Homo sapiens; SU-DHL-4, 96 h, free compound; read-out: Compound X50. As for the experimental part:
Bystander activity of ADCs was evaluated using Renca cancer cells and THP1-Dual™ cells (InvivoGen) which contain an IRF-Lucia luciferase reporter. Cells were cultured in RPMI-1640 (Gibco) with 10% heat-inactivated fetal bovine serum, Pen-Strep (100 U/ml-100 μg/ml, Gibco), HEPES (10 mM, Gibco), sodium pyruvate (1 mM, Gibco), MEM non-essential amino acids (1×, Gibco), GlutaMAX (1×, Gibco), and beta-mercaptoethanol (55 μM, Gibco). Renca cells were plated in a 96-well flat bottom tissue culture-treated clear polystyrene plate (Corning Costar #3596) at 50,000 cells per well in 100 μL. On the day following the initial plating, 50,000 THP1-Dual™ cells were added to each well with the indicated concentration of ADC in a total volume of 200 μL. Supernatant was harvested at 48 hours post addition of the THP1-Dual™ cells. To measure Lucia reporter signal, 10 μL of supernatant was combined with 40 μL of QUANTI-Luc™ Luminescence assay reagent (Invivogen PN: rep-qlc1) in a 96-well clear flat bottom tissue culture-treated black polystyrene plate (Corning Costar PN: 3603) and read on a Perkin Elmer Envision plate reader. In some experiments, HEK 293T cells engineered to express a murine protein typically expressed by immune cells (target antigen C— an immune cell antigen) were plated as above instead of Renca tumor cells. Cancer Cell Direct Cytotoxicity Assay
Cancer cells were counted and plated in 40 μL complete growth media in 384-well, white-walled tissue culture treated plates (Corning). Cell plates were incubated at 37° C. and with 5% CO2 overnight to allow the cells to equilibrate. Stock solutions containing ADCs or free drugs were serially diluted in RPMI-1640+20% fetal bovine serum (FBS). 10 μL of each concentration were then added to each cell plate in duplicate. Cells were then incubated at 37° C. and with 5% CO2 for 96 hours, upon which, the cell plates were removed from the incubator and allowed to cool to room temperature for 30 minutes prior to analysis. […] The luminescence of the samples was measured using an EnVision Multimode plate reader (Perkin Elmer, Waltham, MA). […]
(In general: In ATP-based viability assays light output follows the ATP content of the culture.)

A short description of data set [1]: In vivo cytokine assay, plasma of Renca tumor-bearing mice. Details: species or system mouse. The settings on record: for IL1β in plasma / IL12p70 in plasma / IL-6 in plasma / IL-10 in plasma / IP10 in plasma / MCP-1 in plasma / IFNγ in plasma: Renca tumor-bearing mice, 1.48 mg/kg. As to the method: Cytokines were measured in mouse plasma harvested at 3, 6, 24, or 48 hours after treatment with compounds or ADCs using a Milliplex MAP mouse cytokine/chemokine magnetic bead panel assay kit (MCYTOMAG-70k custom 11-plex kit: MCP1, MIP1α, MIP1β, TNFα, IFNγ, IL-10, IL-12p70, IL-6, IL-1β, IP10, RANTES) and analyzed using a Luminex™ MAGPIX™ Instrument System. Values that were outside of the standard curve range (<3.2 or […]) were excluded from calculation of the mean values.

Turning to `CCn1nc(C)cc1C(=O)Nc1nc2cc(C(N)=O)cc(O)c2n1C/C=C/Cn1c(NC(=O)c2cc(C)nn2CC)nc2cc(C(N)=O)cc(OC)c21` [Compound 1, (E)-1-(4-(5-carbamoyl-2-(1-ethyl-3-methyl-1H-pyrazole-5-carboxamido)-7-hydroxy-1H-benzo[d]imidazol-1-yl)but-2-en-1-yl)-2-(1-ethyl-3-methyl-1H-pyrazole-5-carboxamido)-7-methoxy-1H-benzo[d]imidazole-5-carboxamide], the IC50 in the data set with SU-DHL-4 is greater than 1 µM. In data set [1] (3 h), this compound registered an IL1β in plasma of 0.7 pg/mL, an IL12p70 in plasma of 174 pg/mL, an IL-6 in plasma of 95.7 pg/mL and an IL-10 in plasma of 48.8 pg/mL. Also, in data set [1] (3 h), the IP10 in plasma stood at 703 pg/mL and the MCP-1 in plasma was 168 pg/mL. In data set [1] (6 h), this compound came in with an IFNγ in plasma of 0.2 pg/mL, an IL1β in plasma of 1.5 pg/mL, an IL12p70 in plasma of less than 3.2 pg/mL and an IL-6 in plasma of 6.8 pg/mL. Further, in data set [1] (6 h), the IL-10 in plasma was found to be 0.8 pg/mL, the IP10 in plasma is 3390 pg/mL and the MCP-1 in plasma stood at 796 pg/mL. In data set [1] (24 h), this compound had an IFNγ in plasma of less than 3.2 pg/mL, an IL1β in plasma of 0.8 pg/mL, an IL12p70 in plasma of 140 pg/mL and an IL-6 in plasma of 13.5 pg/mL. In data set [1] (24 h), this compound returned an IL-10 in plasma of 34.6 pg/mL and an IP10 in plasma of 551 pg/mL. Moreover, in data set [1] (plasma of tumor-bearing mice), the “systemic pro-inflammatory cytokine (IL-6 and TNF) production” value was “induced very little pro-inflammatory cytokine (IL-6 and TNF) production”.
